Experimental data taken from patent publication US11401255B2, “Small molecule activators of Parkin enzyme function” (Mayo Foundation for Medical Education and Research, priority 2016, dated 2022).
pEC50: −log10 of the molar value. Where a name gives a salt, the structure may show the parent alone. Read-outs that look alike come from different tables or passages of the source.

Tests used:
[1] = target: Parkin (Homo sapiens (Human), UniProt O60260); experiment: Primary HCI assay of EGFP-Parkin translocation to mitochondria; assay type: cell-based; conditions: primary assay screen, Parkin translocation to mitochondria
Protocol: GFP-Parkin is localized throughout the cell in unstressed cells but translocates to mitochondria when the mitochondrial membrane potential is compromised and Parkin is activated. After automated image acquisition of fixed cells, regions of interest of each cell were defined with the analysis software. […] To quantify the relocalization of GFP-Parkin to mitochondria, the ratio of the GFP intensity in the cytoplasm and the nucleus was calculated. Under non-stressed condition, this ratio is about 1. FIG. 1B is a bar graph showing the results of the assay with a Z factor (Z′) of 0.5-0.8, which indicates its robustness and usefulness as a screening assay. Validation of the assay has been performed by using PINK1 siRNA.
FIGS. 2A-2C show a primary HCI assay with CCCP titration. FIG. 2A is a graphic description of the primary HCI assay of EGFP-Parkin translocation. HeLa cells stably expressing GFP-Parkin were seeded with 1350 cells per well in 384-well plates (25 μL per well). Cells were allowed to attach overnight before drug was added 2× concentrated in a volume of 25 μL in triplicates. After 2 h, 50 μL of a 2× low-dose CCCP (yielding a final concentration of 3.5 μM CCCP) was added to all wells that contained test compounds and for the negative control. For positive control wells, CCCP was added in a final concentration of 10 μM. After 2 h incubation with CCCP, cells were fixed and labeled with Hoechst for at least 1 h before cells were imaged. […] Values were being normalized to negative and positive control values and plotted as % activity. Z′ was calculated for quality control. Positive controls were indicated in green, negative control wells in red. Drugs that lead to more than 50% activity are considered positive (blue).
Functional testing of compounds was performed using an established primary HCI assay for Parkin translocation, which correlates well with enzymatic activation (Fiesel et al., J. Cell Science (2014) 127:3488-3504; Fiesel et al., Human Mutation (2015) 36:774-786). In brief, 1400 HeLa cells stably expressing EGFP-Parkin were seeded into optical 384-well plates (Greiner BioOne) in 25 μL media and allowed to adhere for 40 h. Compounds 1, 2, 3, 4, and 31 were added to the plate as 2× concentrated stocks. Control wells were treated with equal volume of DMSO in media. After 2 h, unless otherwise stated, CCCP was added as 2× concentrated stock with a final assay concentration of 10 μM for PC wells and 3.5 μM for test and NC wells. This low dose of CCCP was experimentally determined by a dose response curve of CCCP to result in no Parkin translocation (FIG. 13). After another 2 h, cells were fixed in 4% paraformaldehyde for 10 min and stained with Hoechst 33342 (1:5000, Invitrogen) before plates were imaged and analyzed.
Image acquisition was performed on a BD Pathway 855 with the Attovision V1.6 software (BD Biosciences). Wells were imaged with a 20× objective using a 2×2 montage with laser autofocus. EGFP exposure time was 0.0175 sec, Hoechst 0.0015 sec. Raw images were not processed and directly analyzed using a build-in ‘RING—2 output’ algorithm. Values were exported and normalized using JMP 11 software and transferred to GraphPad Prism 7 for quality control, graphing and curve fitting for DRCs with a variable slope using four parameters. […] Values were normalized to both PC and NC values from 24 wells each per plate and the Z′ score was calculated. Plates with Z′<0.5 were repeated.

[2] = target: FLAG-Parkin C431S (Homo sapiens (Human), UniProt O60260, C431S); experiment: Ub-charging of FLAG-Parkin C431S (western blot); assay type: cell-based; conditions: 1 μM, 2 h before 3.5 μM CCCP (FIG. 21)
Protocol: Another measure of Parkin activation is Ub charging of Parkin. Parkin receives Ub from an E2 enzyme to transfer it to a substrate protein. The Ub is bound by Parkin C431 in an unstable thioester bond. A serine substitution of this amino acid (C431S) leads to a stable oxyester bond. The bound Ub can then be visualized as a band shift in Western blot experiments. HeLa 3×FLAG-Parkin C431S cells were seeded in 12-well plates and allowed to attach overnight. Cells were treated with 5 μM (top panels) or 1 μM (bottom panels) of Compounds 1, 2, 3, 4, and 31 2 h before adding CCCP for another 2 h. 10 μM CCCP was added to positive control (PC) wells whereas all other samples received a low dose concentration of 3.5 μM. Cells were harvested in boiling hot SDS lysis buffer and protein concentration was determined by BCA. Samples were split and left either untreated or were treated with NaOH as indicated. Samples were run on an 8-16% Tris-Glycine gel, blotted onto membranes and probed with antibodies against Flag and pS65-Ub. GAPDH served as a loading control. Band shift indicates Parkin binding to Ubiquitin, which is cleavable with NaOH.
Cells were harvested in RIPA buffer or NP-40 lysis buffer containing protease and phosphatase inhibitors (Complete and PhosStop, Roche Applied Science) with the exception of Parkin Ub charging experiments where preheated (95° C.) SDS lysis buffer (50 mM Tris pH 7.6, 150 mM NaCl, 1% SDS) was used. Concentration of cell lysates was determined with bicinchoninic acid (Pierce Biotechnology). For Parkin Ub charging experiments, aliquots of lysates were treated with […] for 1 h at 37° C. pH was neutralized with equinormal HCl.
Protein was subjected to SDS-PAGE using 4-20% or 8-16% Tris-Glycine gels (Invitrogen) and transferred onto polyvinylidene fluoride (PVDF) (Millipore). Membranes were incubated with primary antibodies overnight at 4° C. followed by HRP-conjugated secondary antibodies (1:10,000; Jackson ImmunoResearch Laboratories). Primary antibodies used: beta III tubulin (rabbit, 1:1000, CST, #5568, CST), FLAG (mouse, 1:250,000, Sigma, F3165), GAPDH (mouse, 1:100,000-500,000, Meridian Life science, H86504M), GST (1:10,000, Sigma, G7781), MFN1 (mouse, 1:5,000, Abcam, ab57602), MFN2 (mouse, 1:5,000, Abcam, ab56889), Parkin (mouse, 1:2,000, Cell Signaling, #4211), pSer65-Ub (rabbit, 1:15,000, in-house (Fiesel et al., EMBO Reports (2015) 16:1114-30; Fiesel et al., (2015) Autophagy 11:2125-2126)), TOM70 (rabbit, 1:5,000, Proteintech, 14528-1-AP), UBE2L3 (rabbit, 1:10,000, ProteinTech, 14415-1-AP), VDAC1 (mouse, 1:5,000, Abcam, ab14734), vinculin (mouse, 1:100,000, Sigma, V9131).
HeLa 3×FLAG-Parkin C431S cells were seeded in 6-well plates and allowed to attach overnight. Cells were treated with […] of compounds 5, 21-28, 32, 33, or 43-46 2 h before adding CCCP for another 2 h. 10 VM CCCP was added to positive control (PC) wells, 3.5 μM CCCP to compound (+) and negative control (NC) wells. […] Cells were harvested in boiling hot SDS lysis buffer and protein concentration was determined by BCA. Samples were split and left either untreated or were treated with NaOH as indicated. Samples were run on an 8-16% Tris-Glycine gel, blotted onto membranes and probed with antibodies against Flag. Vinculin served as a loading control. Band shift indicates Parkin binding to Ubiquitin, which is cleavable with NaOH (FIG. 21).

[3] = target: CYP 2D6 (Homo sapiens (Human), UniProt P10635); experiment: P450-Glo CYP450 inhibition, CYP 2D6
Chain of CYP 2D6 (P10635 whole entry): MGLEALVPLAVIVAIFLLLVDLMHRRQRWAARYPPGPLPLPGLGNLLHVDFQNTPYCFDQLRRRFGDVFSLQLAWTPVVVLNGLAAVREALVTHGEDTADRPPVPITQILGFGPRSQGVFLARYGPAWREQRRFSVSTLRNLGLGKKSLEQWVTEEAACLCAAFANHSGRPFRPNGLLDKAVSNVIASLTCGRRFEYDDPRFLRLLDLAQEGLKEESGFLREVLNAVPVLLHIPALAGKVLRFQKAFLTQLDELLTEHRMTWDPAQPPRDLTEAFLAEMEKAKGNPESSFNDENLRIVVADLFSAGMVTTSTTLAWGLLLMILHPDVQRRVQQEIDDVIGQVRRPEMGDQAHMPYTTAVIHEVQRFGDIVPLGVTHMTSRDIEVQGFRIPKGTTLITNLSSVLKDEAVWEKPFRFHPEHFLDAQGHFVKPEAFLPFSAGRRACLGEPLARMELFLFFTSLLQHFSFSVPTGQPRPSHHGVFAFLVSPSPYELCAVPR
Protocol: CYP450 inhibition profiling provides valuable information regarding any possible drug-drug interactions for a test compound.
All experiments were performed using P450-Glo™ Assay Systems (Promega) in accordance with the manufacturer's protocols. The P450-Glo™ Assays provide a luminescent readout-based method for measuring cytochrome P450 activity. A conventional cytochrome P450 reaction was performed by incubating the cytochrome P450 and a luminogenic cytochrome P450 substrate. The substrates in the P450-Glo™ assays are derivatives of beetle luciferin. The derivatives themselves are not substrates for luciferase but are converted by cytochrome P450s to luciferin, which in turn reacts with luciferase to produce light. The amount of light produced was directly proportional to cytochrome P450 activity. All test points were performed in quadruplicates. Control membranes (without CYPs) represented the Negative control (baseline).
The following reference compounds were used to assess CYP inhibition: […]

[4] = Caco-2 A-B permeability assay; assay type: in vitro ADME; conditions: human, Caco-2, pH 7.4, A-B
Protocol: (§1) Caco-2 cells were cultivated in 75 cm^2 flasks to 80-90% of confluence according to the ATCC and Millipore recommendations (Millipore protocol note PC1060EN00P) in a humidified atmosphere at 37° C. and 5% CO2. Cells were detached with Trypsin/EDTA solution and re-suspended in the cell culture medium to a final concentration of 2×10^5 cells/mL. 500 μL of the cell suspension was added to each well of an HTS 24-multiwell insert system and 35 mL of prewarmed complete medium was added to the feeder tray. Caco-2 cells were incubated in the multiwell insert system for 10 days before the transport experiments. The medium in the filter plate and feeder tray was changed every other day. After 10 days of cell growth, the integrity of the monolayer was verified by measuring the transepithelial electrical resistance (TEER) for every well using the Millicell-ERS system ohm meter. […] The 24-well insert plate was removed from its feeder plate and placed in a new sterile 24-well transport analysis plate. The medium was aspirated and inserts washed with PBS.
(§2) To determine the rate of drug transport in apical (A) to basolateral (B) direction, 300 μL of the test compound solution in buffer (HBSS, 5.6 mM glucose, 10 mM HEPES, pH=7.4) was added into the filter wells and 1000 μL of the same buffer was added to wells in the transport analysis plate. The plates were incubated for 90 min. at 37° C. with shaking at 50 rpm. 75 μL aliquots were taken from the apical and basolateral compartment for LC-MS/MS analysis. All samples for LC-MS/MS analysis were extracted by acetonitrile (×2 volume) followed by protein sedimentation by centrifuging at 10000 rpm for 10 minutes. Supernatants were analyzed using the HPLC system coupled with a tandem mass spectrometer.
(§3) The apparent permeability (Papp) was calculated for the Caco-2 permeability assay using the following equation: Papp=(VA/((Area)×(Time))×([drug]acc/[drug]initial,d), where: […]

[5] = tested on: Caco-2 cells; experiment: Caco-2 A-B permeability assay; assay type: in vitro ADME; conditions: A-B, 90 min, pH=7.4; hydrochloride
Protocol: as §1, §2, §3

Row | pEC50 [1] | Ub-charging of FLAG-Parkin C431S (WB) [2] | SMILES | other results
1 | 7.20 | enhanced Ub-charging | Cc1nc(NC(=O)Cn2cnc3c2CCCC3)ccc1-c1ccccc1 [Compound 5] | 
2 |  |  | C=C[C@H]1C[N@@]2CC[C@H]1C[C@@H]2[C@@H](O)c1ccnc2ccc(OC)cc12 [quinidine, reference compound] | inhibition at 1 µM [3]: 88.4%
3 |  |  | CC(C)NCC(O)COc1cccc2ccccc12 (stereo not shown) [Propranolol, propranolol hydrochloride, reference compound] | Papp at 90 min ([4]; read-out: Permeability (individual replicates 1, 2)): 23 ×10⁻⁶ cm/s; Papp at 90 min ([4]; read-out: Permeability Mean): 21.8 ×10⁻⁶ cm/s; Permeability (individual replicates 1, 2) [5]: 20.6 10^−6 cm/s
4 | 6.95 | enhanced Ub-charging | c1ccc(CN2CCCN(c3ncnc4c3CCCC4)CC2)cc1 [Compound 33] | 
5 | 7.44 | enhanced Ub-charging | c1ccc(CN2CCCN(c3ncnc4c3CCCCC4)CC2)cc1 [Compound 32] | 
